US10421784B2, “Cell penetrating peptides for intracellular delivery of molecules” (AADIGEN, LLC, priority 2012, dated 2019)

Tests used:
PNA (15 mer -PNA) = test: Fluorescence titration, VEPEP-9/cargo binding; details: cargo PNA (15 mer)
Procedure: (§1) Fluorescence experiments were performed on a PTI spectrofluorimeter at 25° C. in a NaCl 154 mM buffer. Intrinsic Trp-fluorescence of VEPEP-9 was excited at 290 nm and emission spectrum was recorded between 310 and 400 nm, with a spectral band-pass of 2 and 8 nm for excitation and emission, respectively. FITC- or CY5-fluorescence of labelled-peptide or Oligonucleotide were excited at 492 nm and emission recorded between 500 and 580 nm. For VEPEP-9/peptide interaction, 0.5 μM of FITC-labelled peptide was titrated by increasing concentrations of VEPEP-9. For VEPEP-9/oligonucleotide interaction, 200 nM of FITC or CY5-labelled oligodeoxynucleotide (ODN) was titrated by increasing concentrations of VEPEP-9. All measurements were corrected for the dilution and curve fitting were performed by using Grafit software (Erithacus).
(§2) VEPEP-9 peptide form stable complexes with peptides and ODN. The binding of cargos to VEPEP-9 was monitored by fluorescence spectroscopy using the both intrinsic Trp group of VEPEP-9 (3 to 5 Trp-residues) and extrinsic fluorescently labelled cargoes (using Cy3, Cy5 or FITC). Curve fitting reveal that VEPEP-9 strongly binds the different cargoes with dissociation constant in the nanomolar range (Tables 1 and 2 and FIG. 2).
(§3) VEPEP-9 peptides form stable particles with different cargoes including peptide, siRNA, PNA and small aromatic (FIG. 2). The dissociation constant for peptide, siRNA, PNA and small hydrophobic molecule ranges between 10-100 nM, 5-50 nM, 5-50 nM and 0.02 to 0.2 μM, respectively, depending on the nature of the dyes and of the cargoes.

Peptide (C4) = test: Fluorescence titration, VEPEP-9/cargo binding; details: cargo peptide (C4)
Procedure: as §1, §2, §3

[1] = Fluorescence titration, VEPEP-9/cargo binding; details: cargo SHM
Procedure: as §1, §2, §3

siRNA = test: Fluorescence titration, VEPEP-9/cargo binding; details: cargo siRNA
Procedure: as §1, §2, §3

Hela [2] = test: Uptake of Cy-5 labelled small peptide (FACS); type: cell-based, Human
Procedure: (§4) Adherent HS68 fibroblasts, HeLa, PC3, MCF-7, SCK3-Her2, PBMC cell lines (from American Type Culture Collection (ATCC)) were cultured in Dulbecco's Modified Eagle's Medium supplemented with 2 mM glutamine, 1% antibiotics (streptomycin 10,000 μg/ml, penicillin, 10,000 IU/ml) and 10% (w/v) foetal calf serum (FCS), at 37° C. in a humidified atmosphere containing 5% CO2. Stock solutions of VEPEP-9/peptide particles were prepared by complexing 1 μM peptide with VEPEP-9 peptides at a molar ratio of 1/20 for 30 min at 37° C. Lower concentrations of VEPEP-9-carrier/peptide (from 500 nM to 1 μM) were obtained by serial dilution of the stock complexes in PBS, in order to preserve the same VEPEP-9-carrier/peptide ratio. Stock solutions of VEPEP-9/siRNA particles were prepared by complexing 100 nM siRNA with VEPEP-9 peptides at a molar ratio of 1/20 for 30 min at 37° C. Lower concentrations of VEPEP-9/siRNA (from 20 nM to 0.125 nM) were obtained by serial dilution of the stock complexes in PBS, in order to preserve the same VEPEP-9/siRNA ratio. 150,000 cells seeded in a 35 mm dish the day prior transfection, were grown to 60% confluence and overlaid with 200 μl of preformed complexes, incubated for 3-5 min, then 400 μl of DMEM were added. After 30 min. incubation at 37° C., 1 ml of fresh DMEM containing 16% foetal calf serum (FCS) was added in order to reach a final FCS concentration of 10%, without removing the overlay of VEPEP-9/cargo complexes. Cells were returned to the incubator for 24 hrs. For cdk2 derived peptides, cell proliferation was monitored after 24 and 48 hrs. For siRNA targeting Cyclin B1, Cyclin B1 mRNA level was determined 24 hrs following transduction, using Quantigen (Pommies Inc.). Data reported are an average of 3 or 4 distinct experiments.
(§5) VEPEP-9a, VEPEP-9c and VEPEP-9f have been used for the delivery of small peptides into different cell lines, including primary cell lines, stem cell lines and challenging cell lines. Cargoes uptake was monitored using fluorescence spectroscopy and FACS analysis. Fluorescently labelled peptides were visualized in the different cell lines using fluorescence microscopy or FACS sorting (Table 4). In most of the cell lines, the uptake of Cy-5 labelled peptide is more than 70% of the cells.

U2OS [3] = test: Uptake of Cy-5 labelled small peptide (FACS); type: cell-based, Human
Procedure: as §4, §5

CEM-SS [4] = test: Uptake of Cy-5 labelled small peptide (FACS); type: cell-based, Human
Procedure: as §4, §5

HepG2 [5] = test: Uptake of Cy-5 labelled small peptide (FACS); type: cell-based, Human
Procedure: as §4, §5

Jurkat [6] = test: Uptake of Cy-5 labelled small peptide (FACS); type: cell-based, Human
Procedure: as §4, §5

MT4 [7] = test: Uptake of Cy-5 labelled small peptide (FACS); type: cell-based, Human
Procedure: as §4, §5

MCF7 [8] = test: Uptake of Cy-5 labelled small peptide (FACS); type: cell-based, Human
Procedure: as §4, §5

HS-68 [9] = test: Uptake of Cy-5 labelled small peptide (FACS); type: cell-based, Human
Procedure: as §4, §5

STEM [10] = test: Uptake of Cy-5 labelled PNA (FACS); type: cell-based, Mouse
Source text: (§6) VEPEP-9 peptides have been used for the delivery of nucleic acid analogues (PNA and morpholino) into different cell lines, including primary cell lines and challenging cell lines. […] Uptake was monitored using fluorescence spectroscopy and following biological response (Cyclin B1 knockdown).
(§7) Fluorescently labelled PNA was visualized in the different cell lines using fluorescence microscopy or FACS sorting (Table 5). In most of the cell lines, the uptake of Cy-5 labelled PNA is more than 60% of the cells.

MEF [11] = test: Uptake of Cy-5 labelled PNA (FACS); type: cell-based, Mouse
Source text: as §6, §7

C2C12 [12] = test: Uptake of Cy-5 labelled PNA (FACS); type: cell-based, Mouse
Source text: as §6, §7

STEM [13] = test: Uptake of Cy-5 labelled small peptide (FACS); type: cell-based, Mouse
Procedure: as §4, with “Cells were returned to the incubator for 24 hrs.” left out, “Data reported are an average of 3 or 4 distinct experiments.” left out
(§8) VEPEP-9a, VEPEP-9c and VEPEP-9f have been used for the delivery of small peptides into different cell lines, including primary cell lines, stem cell lines and challenging cell lines. Cargoes uptake was monitored using fluorescence spectroscopy and FACS analysis. Fluorescently labelled peptides were visualized in the different cell lines using fluorescence microscopy or FACS sorting (Table 4). […]

MEF [14] = test: Uptake of Cy-5 labelled small peptide (FACS); type: cell-based, Mouse
Procedure: as §4, with “Cells were returned to the incubator for 24 hrs.” left out, “Data reported are an average of 3 or 4 distinct experiments.” left out
as §8

C2C12 [15] = test: Uptake of Cy-5 labelled small peptide (FACS); type: cell-based, Mouse
Procedure: as §4, with “Cells were returned to the incubator for 24 hrs.” left out, “Data reported are an average of 3 or 4 distinct experiments.” left out
as §8

Hela [16] = test: Uptake of Cy-5 labelled PNA (FACS); type: cell-based, Human
Source text: as §6, §7

U2OS [17] = test: Uptake of Cy-5 labelled PNA (FACS); type: cell-based, Human
Source text: as §6, §7

CEM-SS [18] = test: Uptake of Cy-5 labelled PNA (FACS); type: cell-based, Human
Source text: as §6, §7

HepG2 [19] = test: Uptake of Cy-5 labelled PNA (FACS); type: cell-based, Human
Source text: as §6, §7

Jurkat [20] = test: Uptake of Cy-5 labelled PNA (FACS); type: cell-based, Human
Source text: as §6, §7

MT4 [21] = test: Uptake of Cy-5 labelled PNA (FACS); type: cell-based, Human
Source text: as §6, §7

MCF7 [22] = test: Uptake of Cy-5 labelled PNA (FACS); type: cell-based, Human
Source text: as §6, §7

HS-68 [23] = test: Uptake of Cy-5 labelled PNA (FACS); type: cell-based, Human
Source text: as §6, §7

[24] = Fluorescence titration, VEPEP-9/SHM binding
Procedure: as §1
Binding of small molecule cargoes has been investigated in detailed depending on the nature of the SHM. Several hydrophobic molecules have been used (Daunomycin, Paclitaxel, doxorubicin, porphyrin), as well as charged molecules (nucleotide, nucleoside and fluorescent dyes).

cultured cells = test: Cell cycle progression / cyclin B1 levels in cultured cells; type: cell-based; details: carrier alone (200 μM)

For “X1WWRWWAPWARSWWR [VEPEP-9f, X1 is beta-A or S]”, the Binding (PNA (15 mer -PNA)) was “Yes”, the Kd (PNA (15 mer -PNA)) was over 50 nM and the Binding (Peptide (C4)) was “yes”. The Binding [1] was “Yes”, the Kd [1] was 20 to 100 nM and the Binding (siRNA) was “yes”. For the same substance, the Kd (siRNA) was over 200 nM, the “Efficiency (uptake of Cy-5 labelled small peptide)” value (Hela [2]) was 60% and the “Efficiency (uptake of Cy-5 labelled small peptide)” value (U2OS [3]) was 57%. The “Efficiency (uptake of Cy-5 labelled small peptide)” value (CEM-SS [4]) was 87%, the “Efficiency (uptake of Cy-5 labelled small peptide)” value (HepG2 [5]) was 48% and the “Efficiency (uptake of Cy-5 labelled small peptide)” value (Jurkat [6]) was 65%. The “Efficiency (uptake of Cy-5 labelled small peptide)” value (MT4 [7]) was 56%, the “Efficiency (uptake of Cy-5 labelled small peptide)” value (MCF7 [8]) was 89% and the “Efficiency (uptake of Cy-5 labelled small peptide)” value (HS-68 [9]) was 67%. The “Efficiency (uptake of Cy-5 labelled PNA)” value (STEM [10]) was 88%, the “Efficiency (uptake of Cy-5 labelled PNA)” value (MEF [11]) was 74% and the “Efficiency (uptake of Cy-5 labelled PNA)” value (C2C12 [12]) was 69%. For the same substance, the “Efficiency (uptake of Cy-5 labelled small peptide)” value (STEM [13]) was 76%, the “Efficiency (uptake of Cy-5 labelled small peptide)” value (MEF [14]) was 75% and the “Efficiency (uptake of Cy-5 labelled small peptide)” value (C2C12 [15]) was 57%. The “Efficiency (uptake of Cy-5 labelled PNA)” value (Hela [16]) was 78%, the “Efficiency (uptake of Cy-5 labelled PNA)” value (U2OS [17]) was 89% and the “Efficiency (uptake of Cy-5 labelled PNA)” value (CEM-SS [18]) was 78%. For the same substance, the “Efficiency (uptake of Cy-5 labelled PNA)” value (HepG2 [19]) was 71%, the “Efficiency (uptake of Cy-5 labelled PNA)” value (Jurkat [20]) was 81% and the “Efficiency (uptake of Cy-5 labelled PNA)” value (MT4 [21]) was 67%. For the same substance, the “Efficiency (uptake of Cy-5 labelled PNA)” value (MCF7 [22]) was 83%, the “Efficiency (uptake of Cy-5 labelled PNA)” value (HS-68 [23]) was 71% and the Binding ([24]; cargo AZT) was “No”. For the same substance, the Binding ([24]; cargo Doxorubicin) was “yes”, the Binding ([24]; cargo FAM-guanosine) was “yes” and the Kd ([24]; cargo FAM-guanosine) was 800 nM. For the same substance, the Binding ([24]; cargo porphyrin) was “yes”, the Kd ([24]; cargo porphyrin) was 110 nM and the “effect on cell cycle progression” value (cultured cells) was “no effect”.
